pIC50: −log10 of the molar value.
What was measured:
PC3 (prostate) = assay: In vitro cytotoxic activity (MTT) assay, PC3; type: cell-based; conditions: Homo sapiens, Prostate cell; PC3 (prostate) cells, exposed for 96 hours; read-out: IC50, concentration of compound eliciting a 50% inhibition of cell proliferation
Protocol: (§1) Compounds 1-12 were screened for their in vitro cytotoxic activity utilizing a 3-(4,5-dimethyl-thiazol-2-yl)-2,5-diphenyltetrazolium bromide (MTT) assay against selected cancer human cell lines consisting of PC3 (prostate), HCT116 (colon), A375 (melanoma), H1299 (lung), MIAPaCa-2 (pancreas), HL60 (leukemia), MCF7 (breast), MDA-MB-231 (breast) (T. Mosmann, J. Immunol. Meth., 1983, 65, 55-63). The cells were cultured at 37° C. in RMPI1640 medium supplemented with 10% fetal bovine serum, 50 IU/mL penicillin, and 50 μg/mL streptomycin in a 5% CO2 incubator. All cells were sub-cultured 3 times/week by trypsinisation. Viable cells were seeded and allowed to adhere for 12 h before a test drug was added in 96-well plates at an initial density of 1.0×10^5 cells/mL. Tumour cell lines were separately exposed to various concentrations of the tested compounds followed by incubation at a temperature of 37° C. during 96 h inside a medium of fresh RMPI 1640. Cells were subsequently incubated at 37° C. using MTT at 0.5 mg/mL during 4 h. After removal of supernatant, formazan crystals were dissolved in isopropanol and the optical density was measured at 570 nm. CX-4945 was used as a positive control.

HCT116 (colon) = assay: In vitro cytotoxic activity (MTT) assay, HCT116; type: cell-based; conditions: Homo sapiens, HCT-116; HCT116 (colon) cells, exposed for 96 hours; read-out: IC50, concentration of compound eliciting a 50% inhibition of cell proliferation
Protocol: as §1

A375 (melanoma) = assay: In vitro cytotoxic activity (MTT) assay, A375; type: cell-based; conditions: Homo sapiens, A-375; A375 (melanoma) cells, exposed for 96 hours; read-out: IC50, concentration of compound eliciting a 50% inhibition of cell proliferation
Protocol: as §1

H1299 (lung) = assay: In vitro cytotoxic activity (MTT) assay, H1299; type: cell-based; conditions: Homo sapiens, NCI-H1299; H1299 (lung) cells, exposed for 96 hours; read-out: IC50, concentration of compound eliciting a 50% inhibition of cell proliferation
Protocol: as §1

MIAPaCa-2 (pancreas) = assay: In vitro cytotoxic activity (MTT) assay, MIAPaCa-2; type: cell-based; conditions: Homo sapiens, MIA PaCa-2; MIAPaCa-2 (pancreas) cells, exposed for 96 hours; read-out: IC50, concentration of compound eliciting a 50% inhibition of cell proliferation
Protocol: as §1

HL60 (leukemia) = assay: In vitro cytotoxic activity (MTT) assay, HL60; type: cell-based; conditions: Homo sapiens, HL-60; HL60 (leukemia) cells, exposed for 96 hours; read-out: IC50, concentration of compound eliciting a 50% inhibition of cell proliferation
Protocol: as §1

MCF7 (breast) = assay: In vitro cytotoxic activity (MTT) assay, MCF7; type: cell-based; conditions: Homo sapiens; MCF7 (breast) cells, exposed for 96 hours; read-out: IC50, concentration of compound eliciting a 50% inhibition of cell proliferation
Protocol: as §1

MDA-MB-231 (breast) = assay: In vitro cytotoxic activity (MTT) assay, MDA-MB-231; type: cell-based; conditions: Homo sapiens; MDA-MB-231 (breast) cells, exposed for 96 hours; read-out: IC50, concentration of compound eliciting a 50% inhibition of cell proliferation
Protocol: as §1

[1] = biological target: T1, recombinant human CK2 (RRββ-holoenzyme) (Homo sapiens, UniProt P68400); assay: CK2 Kinase Assay (radiometric, [γ-33P] ATP); type: biochemical; conditions: final ATP concentration 15 μM, 10 min at 30° C.; read-out: protein kinase CK2 IC50
T1 construct: purchased Millipore
T1 sequence (P68400 whole entry): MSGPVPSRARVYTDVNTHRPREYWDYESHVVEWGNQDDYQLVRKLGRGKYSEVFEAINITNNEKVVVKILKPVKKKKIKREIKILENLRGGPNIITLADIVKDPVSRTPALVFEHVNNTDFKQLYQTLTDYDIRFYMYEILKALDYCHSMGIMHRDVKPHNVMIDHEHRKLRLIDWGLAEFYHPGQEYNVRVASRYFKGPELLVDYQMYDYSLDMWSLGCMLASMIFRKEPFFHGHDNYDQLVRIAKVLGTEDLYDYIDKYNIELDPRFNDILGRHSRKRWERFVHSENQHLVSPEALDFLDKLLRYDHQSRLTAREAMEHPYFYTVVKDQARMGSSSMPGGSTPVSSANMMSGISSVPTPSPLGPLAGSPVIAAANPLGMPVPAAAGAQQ
T1 sequence (P67870 whole entry partner): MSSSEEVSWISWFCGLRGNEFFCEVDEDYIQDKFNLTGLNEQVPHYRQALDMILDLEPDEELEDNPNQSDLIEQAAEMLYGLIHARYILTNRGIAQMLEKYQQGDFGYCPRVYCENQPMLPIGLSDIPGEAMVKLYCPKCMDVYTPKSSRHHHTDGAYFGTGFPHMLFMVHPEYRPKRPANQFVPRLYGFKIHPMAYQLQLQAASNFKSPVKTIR
Protocol: CK2 Kinase Assay was conducted using the protocol as described in Pierre F. et al; J. Med. Chem. 2011, 54, 635-654. The tested compounds in aqueous solution were added at a volume of 10 μL to a reaction mixture comprising 10 μL of assay dilution buffer (ADB; 20 mM MOPS, pH 7.2, 25 mM β-glycerol phosphate, 5 mM EGTA, 1 mM sodium orthovanadate, and 1 mM dithiothreitol), 10 μL of substrate peptide (RRRDDDSDDD, dissolved in ADB at a concentration of 1 mM), 10 μL of recombinant human CK2 (RRββ-holoenzyme, 25 ng dissolved in ADB; Millipore). Reactions were initiated by the addition of 10 μL of ATP solution (90% 75 mMMgCl2, 75 μM ATP (final ATP concentration: 15 μM) dissolved in ADB; 10% [γ-33P] ATP (stock 1 mCi/100 μL; 3000 Ci/mmol (Perkin-Elmer) and maintained for 10 min at 30° C. The reactions were quenched with 100 μL of 0.75% phosphoric acid and then transferred to and filtered through a phosphor cellulose filter plate (Millipore). After washing each well five times with 0.75% phosphoric acid, the plate was dried under vacuum for 5 min and, following the addition of 15 μL of scintillation fluid to each well, the residual radioactivity was measured using a Wallac […] counter. The IC50 values were derived from eight concentrations of test inhibitors.

Clc1cccc(Nc2c3cnccc3nc3c2[nH]c2ccncc23)c1 [Compound (1), N-(3-chlorophenyl)-10H-pyrido[3′,4′:4,5]pyrrolo[3,2-b][1,6]naphthyridin-11-amine]
pIC50 (PC3 (prostate)): 5.77
pIC50 (HCT116 (colon)): 5.96
pIC50 (A375 (melanoma)): 5.55
pIC50 (H1299 (lung)): 5.49
pIC50 (MIAPaCa-2 (pancreas)): 6.05
pIC50 (HL60 (leukemia)): 5.62
pIC50 (MCF7 (breast)): 5.12
pIC50 (MDA-MB-231 (breast)): 5.27
pIC50 [1]: 7.19

From patent publication US11932642B1, “Substituted pyrido[3′,4′:4,5]pyrrolo[3,2-b][1,6]naphthyridines as CK2 inhibitors” (KING FAISAL UNIVERSITY, priority 2023, dated 2024)
